Reference: PubChem BioAssay (NCI)
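Five concentrations, 48 hours, 96-well plates. TGI: total growth inhibition.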

Legend:
Assay in all cases: NCI tumour cell line growth inhibition, 48 h
[1] = tested on: 786-0 renal
[2] = tested on: A498 renal
[3] = tested on: A549 NSCLC
[4] = tested on: ACHN renal
[5] = tested on: CAKI-1 renal
[6] = tested on: CCRF-CEM leukemia
[7] = tested on: COLO 205 colon
[8] = tested on: DLD-1 colon
[9] = tested on: DMS 114 small cell lung
[10] = tested on: DMS 273 small cell lung
[11] = tested on: HCT-116 colon
[12] = tested on: HCT-15 colon
[13] = tested on: HL-60(TB) leukemia
[14] = tested on: HOP-18 NSCLC
[15] = tested on: HOP-62 NSCLC
[16] = tested on: HOP-92 NSCLC
[17] = tested on: HT29 colon
[18] = tested on: IGROV1 ovarian
[19] = tested on: K-562 leukemia
[20] = tested on: KM12 colon
[21] = tested on: KM20L2 colon
[22] = tested on: LOX IMVI melanoma
[23] = tested on: M14 melanoma
[24] = tested on: M19-MEL melanoma
[25] = tested on: MALME-3M melanoma
[26] = tested on: MOLT-4 leukemia
[27] = tested on: NCI-H226 lung
[28] = tested on: NCI-H23 lung
[29] = tested on: NCI-H460 lung
[30] = tested on: NCI-H522 lung
[31] = tested on: OVCAR-3 ovarian
[32] = tested on: OVCAR-4 ovarian
[33] = tested on: OVCAR-5 ovarian
[34] = tested on: OVCAR-8 ovarian
[35] = tested on: RPMI-8226 leukemia
[36] = tested on: SF-268 CNS
[37] = tested on: SF-295 CNS
[38] = tested on: SF-539 CNS
[39] = tested on: SK-MEL-2 melanoma
[40] = tested on: SK-MEL-28 melanoma
[41] = tested on: SK-MEL-5 melanoma
[42] = tested on: SK-OV-3 ovarian
[43] = tested on: SN12C renal
[44] = tested on: SNB-19 CNS
[45] = tested on: SNB-75 CNS
[46] = tested on: SNB-78 CNS
[47] = tested on: SR leukemia
[48] = tested on: SW-620 colon
[49] = tested on: TK-10 renal
[50] = tested on: U251 CNS
[51] = tested on: UACC-257 melanoma
[52] = tested on: UACC-62 melanoma
[53] = tested on: UO-31 renal
[54] = tested on: XF 498 CNS
[55] = tested on: EKVX NSCLC
[56] = tested on: HCC-2998 colon
[57] = tested on: LXFL 529 NSCLC
[58] = tested on: RXF 393 renal

Measured: TGI

Nc1nc(SCCC/C=C/B(O)O)nc2c1ncn2C1OC(COP(=O)(O)O)C(O)C1O (configuration not stated)
not listed: [55] | [56] | [57] | [58]
> 203 µM: all other assays above

CCC(C)CN1C(=O)NC(Cc2ccccc2)C1=O (configuration not stated)
79.5 µM: [51]
90.8 µM: [16]
not listed: [1] | [2] | [6] | [7] | [11] | [12] | [13] | [18] | [19] | [26] | [31] | [32] | [35] | [41] | [42] | [52]
> 100 µM: all other assays above

O=C1C2C=CC(n3[nH]c(=O)n(Cc4ccccc4)c3=O)CC2C(=O)N1c1cccc(Cl)c1 (configuration not stated)
not listed: [26] | [35]
> 100 µM: all other assays above
